The test system of experiment [1] is Staphylococcus aureus. Description: (§1) Maximal inhibition of the aminoglycoside on Staphylococcus aureus IF-2 binding to fMet-tRNA(fMet).
Experiment [2] relates to Staphylococcus aureus. The experiment in a line: (§2) Denaturation rate constant of IF2 in the presence of aminoglycoside.
Experiment [3] in a line: (§3) Inhibitory activity against the displacement of Picogreen from fMet-tRNA(fMet) by the aminoglycoside. Set-up: species or system Staphylococcus aureus.
A short description of experiment [4]: Inhibitory activity of the aminoglycoside on Staphylococcus aureus IF-2 binding to fMet-tRNA(fMet).
In experiment [5] the test system is Staphylococcus aureus. Description: (§4) Maximal inhibition against the displacement of Picogreen from fMet-tRNA(fMet) by the aminoglycoside.
Experiment [6] deals with Staphylococcus aureus. The description is as §2. The experiment is classed as functional.
For experiment [7], the system named is Staphylococcus aureus. Described as §3. In kind it is functional.
Experiment [8] relates to Staphylococcus aureus. Description: Inhibitory activity of the aminoglycoside on Staphylococcus aureus IF-2 binding to fMet-tRNA (fMet). In kind it is functional.
The test system of experiment [9] is Staphylococcus aureus. The experiment is described as §4. The experiment is classed as functional.
Experiment [10] has as its system Staphylococcus aureus. The description is as §1. In kind it is functional.

This is an account of results in ChEMBL document CHEMBL1145741, “Inhibition of bacterial IF2 binding to fMet-tRNA((fMet)) by aminoglycosides” (Bioorg Med Chem Lett, 2003).

By inhibition is commonly meant the share of the control response that was lost under treatment. Low values mean a weak effect, high ones a strong effect. A word on the IC50: it is the midpoint of a concentration-inhibition curve. Low values mean greater potency, high ones weaker potency. The term Inhibition denotes the drop in the measured response relative to a control, in per cent.

SMILES strings stand for the structures.

Turning to `NC[C@@H]1O[C@@H](O[C@H]2[C@H](O)[C@@H](O[C@H]3O[C@H](CO)[C@@H](O)[C@H](N)[C@H]3O)[C@H](N)C[C@@H]2N)[C@@H](O)[C@H](O)[C@H]1O` [KANAMYCIN A], the inhibition turned out to be 61% in [1] and 92% in experiment [5]. Besides, in [2], the Denaturation rate constant came out at 0.092 min⁻¹. Also, the IC50 came out at 24 nM in experiment [3] and 17800 nM in experiment [4].

Compound `CNC1C(O)C(OC2C(N)CC(N)C(OC3OC(CN)CCC3N)C2O)OCC1(C)O` (configuration not stated) [GENTAMICIN C1A] gave an inhibition in [1] of 66%. The compound further returned an IC50 in [4] of 450 nM.

`CN[C@@H]1C[C@H](N)[C@@H](O)[C@H](O[C@H]2O[C@H](CO)[C@H](O)[C@@H]3O[C@@]4(O[C@@H]23)O[C@H]([C@H](N)CO)[C@H](O)[C@H](O)[C@H]4O)[C@H]1O` [HYGROMYCIN]: the inhibition in experiment [1] was found to be 84%; in [5], 81%. For the same compound, in [2], the Denaturation rate constant stood at 0.096 min⁻¹. Also, the IC50 amounted to 278 nM in [3] and 66000 nM in [4].

In the case of `CN[C@@H]1[C@H](O[C@H]2[C@H](O[C@H]3[C@H](O)[C@@H](O)[C@H](N=C(N)N)[C@@H](O)[C@@H]3N=C(N)N)O[C@@H](C)[C@]2(O)C=O)O[C@@H](CO)[C@H](O)[C@H]1O` [STREPTOMYCIN], the inhibition in [1] turned out to be 43%; in [5], 95%. The Denaturation rate constant in experiment [2] was 0.094 min⁻¹. The IC50 in experiment [3] was 1790 nM; in experiment [4] it was 1490 nM.

For the compound `NCC[C@H](O)C(=O)N[C@@H]1C[C@H](N)[C@@H](O[C@H]2O[C@H](CN)[C@@H](O)[C@H](O)[C@H]2O)[C@H](O)[C@H]1O[C@H]1O[C@H](CO)[C@@H](O)[C@H](N)[C@H]1O` [AMIKACIN], the inhibition in experiment [1] amounted to 43%; in experiment [5], 85%. The Denaturation rate constant in experiment [2] was 0.093 min⁻¹. The figures for the IC50 in experiment [3] and in [4] were 160 nM and 1020 nM, respectively.

Take `CN[C@@H]1[C@@H](O)[C@@H](O[C@@H]2[C@@H](O)[C@H](O[C@H]3OC(CN)=CC[C@H]3N)[C@@H](N)C[C@H]2N)OC[C@]1(C)O` [SISOMICIN]: the Denaturation rate constant in [6] is 0.087 min⁻¹. The IC50 in [7] and in experiment [8] was 7 nM in each case. The inhibition in experiment [9] turned out to be 100%. The compound further gave an Inhibition in experiment [10] of 75%.

Consider `NC[C@@H]1O[C@H](O[C@H]2[C@@H](O)[C@H](O[C@@H]3[C@@H](O)[C@H](N)C[C@H](N)[C@H]3O[C@H]3O[C@H](CN)[C@@H](O)[C@H](O)[C@H]3N)O[C@@H]2CO)[C@H](N)[C@@H](O)[C@@H]1O` [FRAMYCETIN], for which the inhibition in [1] amounted to 76%; in experiment [5], 100%. Moreover, the Denaturation rate constant in [2] amounted to 0.095 min⁻¹. Besides, the 50% inhibitory concentration (IC50) came to 9 nM in experiment [3] and 50 nM in [4].
